In patent US20240191198A1, “CELL-CULTURED FOOD PRODUCTS AND RELATED CELLS, COMPOSITIONS, METHODS AND SYSTEMS” (BlueNalu, Inc., priority 2021, published 2024):
Entries after “also recorded” stand apart in the source; their conditions may differ.

Legend:
Yellowtail myoblasts [1] = experiment: Loading of single fatty acids into yellowtail myoblasts; type: cell-based, Seriola lalandi; settings: for lipid accumulation (BODIPY): individual BSA-conjugated fatty acid 25, 50, 75 or 100 μg/ml, 4% serum
Description: Cells were seeded onto tissue culture polystyrene at a density of 6000 cells per cm^2. Cells were cultured in the presence of control media without fatty acids or test media with individual fatty acids conjugated to BSA at 25, 50, 75, or 100 μg/ml in the presence of 4% serum. Individual fatty acids tested included saturated fatty acids, monounsaturated fatty acids, and unsaturated fatty acids as shown in Table 7 with varying carbon chain length and location of double bonds along the carbon chain. Cell morphology was observed over a six-day period by brightfield microscopy for characteristic rounding and lipid loading.

Bluefin tuna myoblasts = experiment: Effect of nervonic acid on fatty acid toxicity (IncuCyte, CellTiter-Glo ATP assay); type: cell-based, Thunnus orientalis
Description: (§1) Concentration effects of fatty acids previously shown to be toxic to aquatic fat-derived and muscle-derived cells (Example 2, Example 5, and Example 6, respectively) were evaluated, alone and in combination with nervonic acid. EPA, DHA, stearic acid, palmitic acid and nervonic acid were tested at concentrations of 0, 10, 25, and 50 ug/mL; each concentration of EPA, DHA, stearic acid and palmitic acid was also tested in combination with 10, 25 and 50 μg/ml of nervonic acid.
(§2) Cell lines were seeded per standard passaging protocols in 4×96 well plates. The cells were allowed to proliferate to approximately 80% confluence, and then transitioned to lipid loading medium containing 0/4% FBS and appropriate lipid compositions, with 6 wells/condition. Cells were monitored for 24-48 hours to evaluate any protective effect with the addition of nervonic acid.
Cells from aquatic species were placed in the IncuCyte and scanned every 6 hours up to 48 hours. Once imaging was completed, cellviability was determined by a commercially available ATP assay (CellTiter-Glo 2.0, Promega) where luminescent signal is proportionate to cell number.

dog kidney cells = experiment: as above; type: cell-based, Canis familiaris
Description: as §1, §2
(§3) Cells from terrestrial cell lines were imaged in the IncuCyte for a 1-time scan to collect the images and quantify confluence using the IncuCyte software. Following imaging, cell viability was determined by a commercially available ATP assay (CellTiter-Glo 2.0, Promega) where luminescent signal is proportionate to cell number.

rabbit skin fibroblasts = experiment: as above; type: cell-based, Oryctolagus cuniculus
Description: as §1, §2, §3

[2] = tested on: silver carp preadipocytes; experiment: Loading of single fatty acids into carp preadipocytes; type: cell-based, Hypophthalmichthys molitrix; settings: six days; for lipid loading (brightfield, BODIPY lipid droplets): individual fatty acid 25, 50, 75 or 100 μg/ml; for toxicity (cell confluency, cell number): individual fatty acid up to 100 μg/ml
Description: Preadipocytes derived from freshwater carp as described in Example 1 were evaluated for the ability to uptake individual fatty acids. Cells were seeded onto tissue culture polystyrene at a density of 5-7000 cells per cm^2. Cells were cultured in the presence of control media without fatty acids or test media with individual fatty acids at 25, 50, 75, or 100 μg/ml in the absence of serum. Individual fatty acids tested included saturated fatty acids ([…]) and unsaturated fatty acids (linoleic acid). Cell morphology was observed over a six-day period by brightfield microscopy for characteristic rounding and lipid loading. As in Example 1, immunofluorescent staining of cells was performed for cell nuclei by DAPI, cell cytoskeleton by Phalloidin, and lipid droplets by BODIPY.

Yellowtail myoblasts [3] = experiment: Loading of chemically defined fatty acid combinations (Taguchi L-27) into yellowtail myoblasts: cell number, BODIPY, Mitotracker; type: cell-based, Seriola lalandi; settings: fatty acids each at 0, 10, 25 or 50 μg/ml, 4% serum
Description: Myoblasts derived from yellowtail as described in Example 4 were evaluated for the ability to uptake fatty acids from a defined chemical composition. Cells were seeded onto tissue culture polystyrene at a density of 6000 cells per cm^2. Cells were cultured in the presence of control media without fatty acids or test media with fatty acids conjugated to BSA in the presence of 4% serum for two or six days. Concentrations were used for each individual fatty acid at 0, 10, 25, or 50 μg/ml. Combinations of fatty acids were determined using a design of experiments using a Taguchi L-27 design (Table 8). […] Cells were fixed, stained and imaged at day two or day six. Cells were treated with NucBlue, BODIPY and Mitotracker for 1.5 hours and live imaging was performed. Cells were then fixed in 4% PFA for 15 minutes and then blocked overnight at 4 degrees Celsius in blocking buffer that contained 5% goat serum, 1% BSA, and 0.2% fish gelatin in PBS. Cells were incubated with Phalloidin for 1 hour at room temperature in blocking buffer (Phalloidin 1:800). Plates were washed twice with PBS prior to imaging. JMP statistical software was used to quantify the effect of each fatty acid on cell number, fatty acid accumulation, and cell health.

[4] = tested on: Myoblasts or fibroblasts of cow, pork, goat, lamb, or deer; experiment: Loading of fatty acid mixtures and single fatty acids into mammalian cells; type: cell-based
Description: Myoblasts or fibroblasts of cow, pork, goat, lamb, or deer are isolated from muscle tissue by enzymatic and mechanical/or manual dissociation. Cells are expanded in 2D tissue culture or 3D cell suspension culture.
(§4) Cells are cultured in the presence of control media without fatty acids or test media with individual fatty acids at 1, 5, 10, 15, 25, 50, 75, or 100 μg/ml in the absence or presence of reduced serum. Fatty acids are conjugated to BSA or unconjugated. Individual fatty acids include saturated fatty acids, monounsaturated fatty acids, and poly-unsaturated fatty acids with varying carbon chain lengths and location of double bonds along the carbon chains.

[5] = tested on: Myoblasts or fibroblasts of chicken, duck, goose, or turkey; experiment: Loading of fatty acid mixtures and single fatty acids into cells from avian species; type: cell-based
Description: Myoblasts or fibroblasts of chicken, duck, goose, or turkey are isolated from muscle tissue by enzymatic and mechanical/or manual dissociation. Cells are expanded in 2D tissue culture or cell suspension culture.
as §4

[6] = 1-100 μg/ml, absence or presence of reduced serum
[7] = added to the growth medium as the only fatty acid
[8] = toxic concentration of 50 μg/mL DHA

Q: With CC/C=C\C/C=C\C/C=C\C/C=C\C/C=C\C/C=C\CCC(=O)O [DHA, docosahexaenoic acid] as the molecule, how does the “concentration above which toxicity occurs” value (Yellowtail myoblasts [1]; altered cell morphology and decreased cell number) read?
A: above 25 μg/ml

Q: What about the “toxicity (cell morphology, cell number)” value (Yellowtail myoblasts [1]; individual fatty acid, six days) of the same molecule?
A: some toxicity effects at highest concentrations tested

Q: What about the toxic concentration (Bluefin tuna myoblasts; 24-48 hours) of the same molecule?
A: 50 µg/mL

Q: And the toxic concentration (dog kidney cells; 24-48 hours)?
A: 50 µg/mL

Q: What about the toxic concentration (rabbit skin fibroblasts; 24-48 hours) of the same molecule?
A: 50 µg/mL

Q: CCCCCCCCCCCC(=O)O [lauric acid] was tested. Which “lipid accumulation (BODIPY)” value (Yellowtail myoblasts [1]; six days) did it give?
A: significant accumulation at all concentrations tested; also recorded: Highest lipid loading

Q: For CCCCC/C=C\C/C=C\CCCCCCCC(=O)O [linoleic acid], which “lipid loading (brightfield, BODIPY lipid droplets)” value (“lipid loading” below) [2] is on record?
A: concentration-dependent lipid accumulation; also recorded: increased loading with concentration

Q: And the “lipid accumulation (BODIPY)” value (Yellowtail myoblasts [1]; six days)?
A: limited total loading capacity

Q: With CC/C=C\C/C=C\C/C=C\CCCCCCCC(=O)O [linolenic acid, α-linolenic acid] as the molecule, how does the “lipid accumulation (BODIPY)” value (Yellowtail myoblasts [1]; six days) read?
A: lipid accumulation that was concentration-driven; also recorded: Loading at all concentrations was observed

Q: How did the “lipid accumulation (BODIPY)” value (Yellowtail myoblasts [1]; six days) turn out when CCCCCCCCCCCCCC(=O)O [myristic acid] was run?
A: limited accumulation with only small areas of uptake even at the highest concentration of 100 μg/ml

Q: With CCCCCCCC/C=C\CCCCCCCCCCCCCC(=O)O [nervonic acid, (Z)-Tetracos-15-enoic acid] as the molecule, how does the “lipid accumulation (BODIPY)” value (Yellowtail myoblasts [1]; six days) read?
A: no lipid accumulation at any concentration tested; also recorded: does not load when used individually; also recorded: No lipid loading was observed

Q: What about the “cell number and health (Mitotracker), viability” value (Yellowtail myoblasts [3]) of the same molecule?
A: key factor in increasing lipid accumulation and cell number

Q: And the “lipid content / lipid accumulation (BODIPY fluorescence)” value (Yellowtail myoblasts [3]; two or six days)?
A: key factor in increasing lipid accumulation and cell number

Q: And the “lipid uptake and lipid accumulation” value [4, 6]?
A: causes increased lipid uptake and lipid accumulation

Q: What about the cell proliferation [4, 7] of the same molecule?
A: increases cell proliferation

Q: What about the “lipid uptake and lipid accumulation” value [5, 6] of the same molecule?
A: causes increased lipid uptake and lipid accumulation

Q: What about the cell proliferation [5, 7] of the same molecule?
A: increases cell proliferation

Q: What about the “increase in cell number (cell ATP) in the presence of nervonic acid” value (shortened to “increase in cell number (cell ATP)”) (Bluefin tuna myoblasts; [8]) of the same molecule?
A: 70 ×

Q: What about the “increase in cell number (cell ATP)” value (dog kidney cells; [8]) of the same molecule?
A: 5.5 ×

Q: And the “increase in cell number (cell ATP)” value (rabbit skin fibroblasts; [8])?
A: 42 ×

Q: For CCCCCCCC/C=C\CCCCCCCC(=O)O [oleic acid], which “lipid accumulation (BODIPY)” value (Yellowtail myoblasts [1]; six days) is on record?
A: Loading at all concentrations was observed

Q: Which “lipid accumulation (BODIPY)” value (Yellowtail myoblasts [1]; six days) does the source give for CCCCCCCCCCCCCCCC(=O)O [palmitic acid] here?
A: limited accumulation with only small areas of uptake even at the highest concentration of 100 μg/ml

Q: With CCCCCC/C=C\CCCCCCCC(=O)O [palmitoleic acid] as the molecule, how does the “lipid loading” value [2] read?
A: concentration-dependent lipid accumulation; also recorded: a peak for palmitoleic acid is reached at a lower concentration

Q: And the “lipid loading” value ([2]; listed as Palmitoleic acid)?
A: effective loading at 50 μg/ml

Q: What about the “toxicity (cell confluency, cell number)” value [2] of the same molecule?
A: reduced cell confluency indicating potential toxicity

Q: And the “toxicity (cell confluency, cell number)” value ([2]; listed as Palmitoleic acid)?
A: reduced cell number; also recorded: Some concentration-related toxicity

Q: What about the “concentration above which toxicity occurs” value [2] of the same molecule?
A: above 50 μg/ml

Q: What about the “lipid accumulation (BODIPY)” value (Yellowtail myoblasts [1]; six days) of the same molecule?
A: Loading at all concentrations was observed

Q: How did the “lipid accumulation (BODIPY)” value (Yellowtail myoblasts [1]; six days) turn out when CCCCCCCCCCCCCCCCCC(=O)O [stearic acid] was run?
A: limited accumulation with only small areas of uptake even at the highest concentration of 100 μg/ml

Q: Which “lipid accumulation (BODIPY)” value (Yellowtail myoblasts [1]; six days) does the source give for CCCCCC/C=C\CCCCCCCCCC(=O)O [vaccenic acid, (11Z)-11-octadecenoic acid] here?
A: Loading at all concentrations was observed

Q: What about the “lipid accumulation (BODIPY)” value (Yellowtail myoblasts [1]; six days, listed as Cis-vaccenic acid) of the same molecule?
A: taken up very readily
